Read-outs that look alike come from different tables or passages of the source. Each block holds one compound with its values, some of them ahead of it.
What was measured:
Type in all cases: biochemical
Details in all cases: replicate number in parentheses
[1] = biological target: KAT6A Full length enzyme (Homo sapiens (Human), UniProt Q92794); experiment: KAT6A assay (SAMDI-MS acetylation of H3 1-21 peptide)
[2] = biological target: KAT7+BRPF2+EAF6+ING5 4 protein complex (Homo sapiens (Human), UniProt O95251); experiment: KAT7 BRPF2 assay (SAMDI-MS acetylation of H3 1-21 peptide)
[3] = biological target: KAT7+JADE1+EAF6+ING5 4 protein complex (Homo sapiens (Human), UniProt O95251); experiment: KAT7 JADE1 assay (SAMDI-MS acetylation of H3 1-21 peptide)
[4] = biological target: KAT8 Full length enzyme (Homo sapiens (Human), UniProt Q9H7Z6); experiment: KAT8 assay (SAMDI-MS acetylation of H3 1-21 peptide)
[5] = biological target: KAT5 Full length enzyme (Homo sapiens (Human), UniProt Q92993); experiment: KAT5 assay (SAMDI-MS acetylation of H4 1-21 peptide)
[6] = Morrison equation fit, read-out: KAT6A Ki (nM) (replicate number)
[7] = Morrison equation fit, read-out: KAT7 BRPF2 Ki (nM) (replicate number)
[8] = Morrison equation fit, read-out: KAT7 JADE1 Ki (nM) (replicate number)
[9] = Morrison equation fit, read-out: KAT8 Ki (nM) (replicate number)
[10] = Morrison equation fit, read-out: KAT5 Ki (nM) (replicate number)
[11] = read-out: KAT6A Ki (nM) (replicate)
[12] = read-out: KAT7 BRPF2 Ki (nM) (replicate)
[13] = read-out: KAT7 JADE1 Ki (nM) (replicate)

Sequence of KAT6A Full length enzyme (Q92794 other isoform, or with tags, fused parts or gaps): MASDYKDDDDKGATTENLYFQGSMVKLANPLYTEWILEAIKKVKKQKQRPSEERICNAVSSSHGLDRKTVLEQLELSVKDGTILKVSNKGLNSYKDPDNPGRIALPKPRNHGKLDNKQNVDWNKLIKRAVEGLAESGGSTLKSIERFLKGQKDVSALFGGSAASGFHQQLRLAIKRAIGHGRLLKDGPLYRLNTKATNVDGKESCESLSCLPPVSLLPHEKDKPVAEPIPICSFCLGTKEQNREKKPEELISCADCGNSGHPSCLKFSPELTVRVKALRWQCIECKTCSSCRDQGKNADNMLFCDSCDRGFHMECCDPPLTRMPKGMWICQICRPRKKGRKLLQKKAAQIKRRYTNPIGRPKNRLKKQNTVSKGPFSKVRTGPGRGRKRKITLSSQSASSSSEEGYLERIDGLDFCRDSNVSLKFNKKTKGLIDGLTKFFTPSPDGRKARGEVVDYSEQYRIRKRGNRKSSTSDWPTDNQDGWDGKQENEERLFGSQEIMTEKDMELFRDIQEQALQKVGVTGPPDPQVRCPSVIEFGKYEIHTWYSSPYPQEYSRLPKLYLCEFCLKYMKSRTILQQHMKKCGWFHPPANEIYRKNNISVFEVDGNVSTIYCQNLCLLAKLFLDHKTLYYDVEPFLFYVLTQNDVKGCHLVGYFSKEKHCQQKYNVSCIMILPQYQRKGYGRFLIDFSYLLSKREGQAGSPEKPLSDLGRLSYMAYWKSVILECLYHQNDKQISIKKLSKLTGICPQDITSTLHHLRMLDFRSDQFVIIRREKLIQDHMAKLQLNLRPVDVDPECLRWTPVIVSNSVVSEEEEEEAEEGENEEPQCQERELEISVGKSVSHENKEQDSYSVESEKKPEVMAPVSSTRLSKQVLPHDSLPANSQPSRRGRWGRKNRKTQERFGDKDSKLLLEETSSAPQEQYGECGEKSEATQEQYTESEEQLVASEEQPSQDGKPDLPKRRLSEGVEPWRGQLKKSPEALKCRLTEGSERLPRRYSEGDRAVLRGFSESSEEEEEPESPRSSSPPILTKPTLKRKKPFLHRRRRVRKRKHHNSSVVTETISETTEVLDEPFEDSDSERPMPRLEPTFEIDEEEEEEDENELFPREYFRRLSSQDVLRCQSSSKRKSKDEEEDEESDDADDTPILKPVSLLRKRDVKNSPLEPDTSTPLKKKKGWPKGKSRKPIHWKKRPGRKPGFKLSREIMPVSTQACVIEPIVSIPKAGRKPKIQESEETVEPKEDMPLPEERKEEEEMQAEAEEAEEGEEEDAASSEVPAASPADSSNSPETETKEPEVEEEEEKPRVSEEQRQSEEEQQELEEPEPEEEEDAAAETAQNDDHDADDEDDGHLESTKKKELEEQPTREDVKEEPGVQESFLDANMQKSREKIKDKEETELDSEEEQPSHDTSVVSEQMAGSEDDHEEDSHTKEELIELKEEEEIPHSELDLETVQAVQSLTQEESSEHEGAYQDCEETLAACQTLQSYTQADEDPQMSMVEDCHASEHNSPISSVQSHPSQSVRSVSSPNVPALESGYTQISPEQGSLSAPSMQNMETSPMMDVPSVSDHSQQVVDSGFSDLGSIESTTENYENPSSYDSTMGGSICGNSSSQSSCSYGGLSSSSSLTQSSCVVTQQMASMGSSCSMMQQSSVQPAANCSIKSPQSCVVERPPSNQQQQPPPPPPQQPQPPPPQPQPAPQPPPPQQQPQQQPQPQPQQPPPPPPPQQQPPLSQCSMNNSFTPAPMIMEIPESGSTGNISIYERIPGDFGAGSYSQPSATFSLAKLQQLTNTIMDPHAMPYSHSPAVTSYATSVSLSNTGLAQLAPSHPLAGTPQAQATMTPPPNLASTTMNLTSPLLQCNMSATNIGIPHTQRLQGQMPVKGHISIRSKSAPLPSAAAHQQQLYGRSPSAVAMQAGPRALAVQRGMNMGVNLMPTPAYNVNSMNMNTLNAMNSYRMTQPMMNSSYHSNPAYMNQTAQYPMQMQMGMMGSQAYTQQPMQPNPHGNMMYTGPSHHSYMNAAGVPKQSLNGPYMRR
Sequence of KAT5 Full length enzyme (Q92993 whole entry): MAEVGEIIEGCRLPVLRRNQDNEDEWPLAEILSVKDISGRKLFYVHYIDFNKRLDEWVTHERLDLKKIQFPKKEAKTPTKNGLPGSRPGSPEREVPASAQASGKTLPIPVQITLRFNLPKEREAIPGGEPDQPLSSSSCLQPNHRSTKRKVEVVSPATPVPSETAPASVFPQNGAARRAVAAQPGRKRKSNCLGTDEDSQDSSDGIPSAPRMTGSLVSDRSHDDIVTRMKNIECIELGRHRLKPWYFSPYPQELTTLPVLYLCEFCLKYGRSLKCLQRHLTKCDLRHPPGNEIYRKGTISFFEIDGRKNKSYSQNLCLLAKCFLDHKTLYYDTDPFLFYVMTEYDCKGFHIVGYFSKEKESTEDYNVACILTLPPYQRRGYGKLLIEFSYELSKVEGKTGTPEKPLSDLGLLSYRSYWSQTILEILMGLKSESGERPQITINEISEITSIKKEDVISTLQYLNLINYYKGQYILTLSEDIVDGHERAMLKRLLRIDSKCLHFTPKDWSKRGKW
Sequence of KAT8 Full length enzyme (Q9H7Z6 whole entry): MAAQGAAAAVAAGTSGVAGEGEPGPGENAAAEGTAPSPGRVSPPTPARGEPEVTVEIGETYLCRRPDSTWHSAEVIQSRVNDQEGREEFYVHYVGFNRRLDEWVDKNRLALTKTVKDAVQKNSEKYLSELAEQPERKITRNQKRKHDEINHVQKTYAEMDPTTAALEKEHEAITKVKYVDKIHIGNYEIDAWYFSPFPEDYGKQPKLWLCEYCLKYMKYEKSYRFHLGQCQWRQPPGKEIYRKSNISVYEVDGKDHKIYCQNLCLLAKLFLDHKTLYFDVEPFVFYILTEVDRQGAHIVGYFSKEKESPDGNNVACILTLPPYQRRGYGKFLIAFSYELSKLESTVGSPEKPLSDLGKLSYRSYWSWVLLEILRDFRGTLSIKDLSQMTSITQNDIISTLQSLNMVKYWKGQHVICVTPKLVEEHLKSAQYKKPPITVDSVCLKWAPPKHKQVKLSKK

SMILES: COc1cc2c(NS(=O)(=O)c3c(OC)cc(C4COCC(C)(C)O4)cc3OC)noc2cc1Nc1cc(C2CC2)n[nH]1 (single isomer, unassigned) [Example 183, N-{6-[(3-cyclopropyl-1 H-pyrazol-5-yl)amino]-5-methoxy-1,2-benzoxazol-3-yl}-4-(6,6-dimethyl-1,4-dioxan-2-yl)-2,6-dimethoxybenzene-1-sulfonamide]
Ki [1, 6]: 2.1 nM | Ki [2, 7]: 2.1 nM | Ki [3, 8]: 5.7 nM

SMILES: COc1cc2c(NS(=O)(=O)c3c(OC)cc(C4COCC(C)(C)O4)cc3OC)noc2cc1Nc1cc(C2CC2)n[nH]1 (single isomer, unassigned) [Example 184, N-{6-[(3-cyclopropyl-1 H-pyrazol-5-yl)amino]-5-methoxy-1,2-benzoxazol-3-yl}-4-(6,6-dimethyl-1,4-dioxan-2-yl)-2,6-dimethoxybenzene-1-sulfonamide]
Ki [1, 6]: 1.8 nM | Ki [2, 7]: 1.6 nM | Ki [3, 8]: 4.7 nM | Ki [4, 9]: 1030 nM | Ki [5, 10]: 60.7 nM

SMILES: COc1cc2c(NS(=O)(=O)c3c(OC)cc(C4COC(C)(C)CO4)cc3OC)noc2cc1Nc1cc(C2CC2)n[nH]1 (single isomer, unassigned) [Example 185, N-{6-[(3-cyclopropyl-1 H-pyrazol-5-yl)amino]-5-methoxy-1,2-benzoxazol-3-yl}-4-(5,5-dimethyl-1,4-dioxan-2-yl)-2,6-dimethoxybenzene-1-sulfonamide]
Ki [1, 6]: 0.3 nM | Ki [2, 7]: 0.9 nM | Ki [3, 8]: 1.8 nM | Ki [4, 9]: 1220 nM | Ki [5, 10]: 1 nM

SMILES: COc1cc2c(NS(=O)(=O)c3c(OC)cc(C4COC(C)(C)CO4)cc3OC)noc2cc1Nc1cc(C2CC2)n[nH]1 (single isomer, unassigned) [Example 186, N-{6-[(3-cyclopropyl-1 H-pyrazol-5-yl)amino]-5-methoxy-1,2-benzoxazol-3-yl}-4-(5,5-dimethyl-1,4-dioxan-2-yl)-2,6-dimethoxybenzene-1-sulfonamide]
Ki [1, 6]: 0.8 nM | Ki [2, 7]: 1.5 nM | Ki [3, 8]: 3.6 nM | Ki [4, 9]: 590 nM | Ki [5, 10]: 5.8 nM

SMILES: COc1cc2c(NS(=O)(=O)c3c(OC)cc(C(C)N4CCOCC4)cc3OC)noc2cc1Nc1cc(C2CC2)n[nH]1 (single isomer, unassigned) [Example 207, N-{6-[(3-cyclopropyl-1 H-pyrazol-5-yl)amino]-5-methoxy-1,2-benzoxazol-3-yl}-2,6-dimethoxy-4-[1-(morpholin-4-yl)ethyl]benzene-1-sulfonamide]
Ki [1, 6]: 2.3 nM | Ki [2, 7]: 4 nM | Ki [3, 8]: 11.5 nM

SMILES: CCOc1cccc(OC)c1S(=O)(=O)Nc1noc2cc(Nc3cc[nH]n3)c(OC)cc12 [Example 30, 2-ethoxy-6-methoxy-N-{5-methoxy-6-[(1H-pyrazol-3-yl)amino]-1,2-benzoxazol-3-yl}benzene-1-sulfonamide]
Ki [1, 6]: 0.5 nM | Ki [2, 7]: 26 nM | Ki [3, 8]: 248 nM | Ki [4, 9]: 676 nM | Ki [5, 10]: 605 nM

SMILES: CCOc1cccc(OC)c1S(=O)(=O)Nc1noc2cc(Nc3cc(C(C)C)[nH]n3)c(OC)cc12 [Example 83, 2-ethoxy-6-methoxy-N-(5-methoxy-6-{[5-(propan-2-yl)-1H-pyrazol-3-yl]amino}-1,2-benzoxazol-3-yl)benzene-1-sulfonamide]
Ki [1, 6]: 2.9 nM | Ki [2, 7]: 7.8 nM | Ki [3, 8]: 60.1 nM | Ki [4, 9]: 10400 nM | Ki [5, 10]: 502 nM

SMILES: CCc1cc(Nc2cc3onc(NS(=O)(=O)c4ccc(C(=O)NCCCCCN)cc4OC)c3cc2OC)[nH]n1 [Example 96, N-(5-aminopentyl)-4-({6-[(3-ethyl-1H-pyrazol-5-yl)amino]-5-methoxy-1,2-benzoxazol-3-yl}sulfamoyl)-3-methoxybenzamide]
Ki [1, 6]: 7.3 nM | Ki [2, 7]: 13.6 nM | Ki [3, 8]: 103 nM | Ki [4, 9]: > 13000 nM | Ki [5, 10]: 2050 nM

SMILES: CCOc1cccc(OC)c1S(=O)(=O)Nc1noc2cc(Nc3cc(C)[nH]n3)c(OC)cc12 [Example 99, 2-ethoxy-6-methoxy-N-{5-methoxy-6-[(5-methyl-1H-pyrazol-3-yl)amino]-1,2-benzoxazol-3-yl}benzene-1-sulfonamide]
Ki [1, 6]: 0.5 nM | Ki [2, 7]: 5.5 nM | Ki [3, 8]: 82.6 nM | Ki [4, 9]: 4840 nM | Ki [5, 10]: 388 nM

SMILES: CCc1cc(Nc2cc3onc(NS(=O)(=O)c4ccc(C(=O)NCCCCCNC(=O)c5ccc(-c6nnc(C)nn6)cc5)cc4OC)c3cc2OC)[nH]n1 [Example 138, 4-({6-[(3-Ethyl-1 H-pyrazol-5-yl)amino]-5-methoxy-1,2-benzoxazol-3-yl}sulfamoyl)-3-methoxy-N-{5-[4-(6-methyl-1,2,4,5-tetrazin-3-yl)benzamido]pentyl}benzamide]
Ki [1, 6]: 1.2 nM | Ki [2, 7]: 5.6 nM | Ki [3, 8]: 40.6 nM | Ki [4, 9]: > 13000 nM | Ki [5, 10]: 195 nM

Ki [1, 6]: 2.5 nM | Ki [2, 7]: 2.9 nM | Ki [3, 8]: 8.4 nM | Ki [4, 9]: 3690 nM | Ki [5, 10]: 140 nM
SMILES: COc1cc2c(NS(=O)(=O)c3c(OC)cc([C@H]4CCCN4C)cc3OC)noc2cc1Nc1cc(C2CC2)n[nH]1 [Example 188, N-{6-[(3-cyclopropyl-1 H-pyrazol-5-yl)amino]-5-methoxy-1,2-benzoxazol-3-yl}-2,6-dimethoxy-4-[(2R)-1-methylpyrrolidin-2-yl]benzene-1-sulfonamide]

SMILES: COc1cc2c(NS(=O)(=O)c3c(OC)cc(-c4ncc(CN(C)C)cn4)cc3OC)noc2cc1Nc1cc(C2CC2)n[nH]1 [Example 223, N-{6-[(3-cyclopropyl-1H-pyrazol-5-yl)amino]-5-methoxy-1,2-benzoxazol-3-yl}-4-{5-[(dimethylamino)methyl]pyrimidin-2-yl}-2,6-dimethoxybenzene-1-sulfonamide]
Ki [1, 6]: 0.4 nM | Ki [3, 8]: 4 nM | Ki [4, 9]: 679 nM | Ki [5, 10]: 25.4 nM

SMILES: COc1cc2c(NS(=O)(=O)c3c(OC)cc(-c4nccc(C(C)N(C)C)n4)cc3OC)noc2cc1Nc1cc(C2CC2)n[nH]1 (centres unmarked) [Example 227, N-{6-[(3-cyclopropyl-1 H-pyrazol-5-yl)amino]-5-methoxy-1,2-benzoxazol-3-yl}-4-{4-[1-(dimethylamino)ethyl]pyrimidin-2-yl}-2,6-dimethoxybenzene-1-sulfonamide]
Ki [1, 6]: 0.4 nM | Ki [3, 8]: 6.9 nM | Ki [4, 9]: 3490 nM | Ki [5, 10]: 218 nM

SMILES: CCc1cc(Nc2cc3onc(NS(=O)(=O)c4c(OC)cc(-c5ccn(C)n5)cc4OC)c3cc2OC)[nH]n1 [Example 230, N-{6-[(3-ethyl-1H-pyrazol-5-yl)amino]-5-methoxy-1,2-benzoxazol-3-yl}-2,6-dimethoxy-4-(1-methyl-1 H-pyrazol-3-yl)benzene-1-sulfonamide]
Ki [1, 6]: 1 nM | Ki [3, 8]: 2.3 nM | Ki [4, 9]: 1960 nM | Ki [5, 10]: 158 nM

SMILES: COc1cc2c(NS(=O)(=O)c3c(OC)cc(-n4ncccc4=O)cc3OC)noc2cc1Nc1cc(C2CC2)n[nH]1 [Example 243, N-{6-[(3-cyclopropyl-1 H-pyrazol-5-yl)amino]-5-methoxy-1,2-benzoxazol-3-yl}-2,6-dimethoxy-4-(6-oxopyridazin-1(6H)-yl)benzene-1-sulfonamide]
Ki [1, 6]: 1.5 nM | Ki [3, 8]: 16.9 nM | Ki [4, 9]: 872 nM | Ki [5, 10]: 168 nM

SMILES: COc1cc2c(NS(=O)(=O)c3c(OC)cc(N(C)C4CCOC4)cc3OC)noc2cc1Nc1cc(C2CC2)[nH]n1 (centres unmarked) [Example 247, N-{6-[(3-cyclopropyl-1H-pyrazol-5-yl)amino]-5-methoxy-1,2-benzoxazol-3-yl}-2,6-dimethoxy-4-[methyl(oxolan-3-yl)amino]benzene-1-sulfonamide]
Ki [1, 11]: 0.5 nM | Ki [2, 12]: 1.7 nM | Ki [3, 13]: 2.7 nM

SMILES: COc1cc2c(NS(=O)(=O)c3c(OC)cc(N(C)C4COC4)cc3OC)noc2cc1Nc1cc(C2CC2)n[nH]1 [Example 248, N-{6-[(3-cyclopropyl-1H-pyrazol-5-yl)amino]-5-methoxy-1,2-benzoxazol-3-yl}-2,6-dimethoxy-4-[methyl(oxetan-3-yl)amino]benzene-1-sulfonamide]
Ki [1, 11]: 1.2 nM | Ki [2, 12]: 2.6 nM | Ki [3, 13]: 5.8 nM

SMILES: COc1cc2c(NS(=O)(=O)c3c(OC)cc(N4CC[C@@H](OC)C4)cc3OC)noc2cc1Nc1cc(C2CC2)n[nH]1 [Example 250, N-{6-[(3-cyclopropyl-1H-pyrazol-5-yl)amino]-5-methoxy-1,2-benzoxazol-3-yl}-2,6-dimethoxy-4-[(3R)-3-methoxypyrrolidin-1-yl]benzene-1-sulfonamide]
Ki [1, 11]: 0.2 nM | Ki [2, 12]: 0.9 nM | Ki [3, 13]: 1.3 nM

SMILES: COc1cc2c(NS(=O)(=O)c3c(OC)cc(N4C(=O)CCC4(C)C)cc3OC)noc2cc1Nc1cc(C2CC2)n[nH]1 [Example 256, N-{6-[(3-cyclopropyl-1H-pyrazol-5-yl)amino]-5-methoxy-1,2-benzoxazol-3-yl}-4-(2,2-dimethyl-5-oxopyrrolidin-1-yl)-2,6-dimethoxybenzene-1-sulfonamide]
Ki [1, 11]: 1.1 nM | Ki [2, 12]: 0.8 nM | Ki [3, 13]: 4.7 nM

SMILES: COc1cc2c(NS(=O)(=O)c3c(OC)cc(C(=O)N4CC[C@H](F)C4)cc3OC)noc2cc1Nc1cc(C2CC2)n[nH]1 [Example 259, N-{6-[(3-cyclopropyl-1H-pyrazol-5-yl)amino]-5-methoxy-1,2-benzoxazol-3-yl}-4-[(3S)-3-fluoropyrrolidine-1-carbonyl]-2,6-dimethoxybenzene-1-sulfonamide]
Ki [1, 11]: 1.2 nM | Ki [3, 13]: 6.7 nM | Ki ([4]; read-out: KAT8 Ki (nM) (replicate)): 4990 nM | Ki ([5]; read-out: KAT5 Ki (nM) (replicate)): 85.1 nM

— patent US20250122183A1 (Pfizer Inc., priority 2023, published 2025)
